Measured values: patent US20160129089A1, “COMBINATION THERAPY” (ANTISENSE THERAPEUTICS LTD, priority 2013, published 2016)
e = 2'-O-(2-methoxyethyl) (MOE); d = 2'-deoxy (DNA)

tested on: human growth hormone receptor mRNA; test: Inhibition of human growth hormone receptor mRNA levels by antisense oligonucleotides, quantitative real-time PCR, MCF7 cells; type: cell-based; parameters: concentration or dose not given beside the values; conditions: averages from three experiments
Procedure: “Target site” indicates the first (5′-most) nucleotide number on the particular target sequence to which the oligonucleotide binds. “% Inhib” indicates the inhibitory effect on hGHR mRNA levels by quantitative real-time PCR. Data are averages from three experiments in which MCF7 cells were treated with the antisense oligonucleotides.
All oligonucelotides in Table 1 are chimeric oligonucleotides (“gapmers”), 20 nucleotides in length, composed of a central “gap” region consisting of ten 2′-deoxynucleotides, which is flanked on both sides (5′ and 3′ directions) by five-nucleotide “wings”. The wings are composed of 2′-methoxyethyl (2′-MOE) nucleotides. The internucleoside (backbone) linkages are phosphorothioate (P═S) throughout the oligonucleotide. All uracils are 5-methyluracils (^MeU). Typically, the oligonucleotide is synthesized using 2-methoxyethyl modified thymidines not 5-methyluracils. All pyrimidines are C5 methylated (i.e., U, T, C are C5 methylated).

Row | Substance | % INHIB (inhibitory effect on hGHR mRNA levels)
1 | 227453 (antisense CATAATCAGGGCATTCTTTC; sugars from the 5' end e5 d10 e5, all phosphorothioate, methylation of C not given here) [compound 227453] | 52%
2 | 227464 (antisense CCTTTAATCTTTGGAACTGG; sugars from the 5' end e5 d10 e5, all phosphorothioate, methylation of C not given here) [compound 227464] | 58%
3 | 227468 (antisense TCATCAATATCTAGCTCAAT; sugars from the 5' end e5 d10 e5, all phosphorothioate, methylation of C not given here) [compound 227468] | 62%
4 | 227469 (antisense CTTAGAAGTCTGTCTGTGTC; sugars from the 5' end e5 d10 e5, all phosphorothioate, methylation of C not given here) [compound 227469] | 63%
5 | 227475 (antisense CCTGCTGGTGTAATGTCGCT; sugars from the 5' end e5 d10 e5, all phosphorothioate, methylation of C not given here) [compound 227475] | 68%
6 | 227480 (antisense ATGTAAATGTCCTCTTGGTT; sugars from the 5' end e5 d10 e5, all phosphorothioate, methylation of C not given here) [compound 227480] | 66%
7 | 227481 (antisense TGGTGATGTAAATGTCCTCT; sugars from the 5' end e5 d10 e5, all phosphorothioate, methylation of C not given here) [compound 227481] | 45%
8 | 227482 (antisense TTCTGTGGTGATGTAAATGT; sugars from the 5' end e5 d10 e5, all phosphorothioate, methylation of C not given here) [compound 227482] | 53%
9 | 227483 (antisense AGGCTTTCTGTGGTGATGTA; sugars from the 5' end e5 d10 e5, all phosphorothioate, methylation of C not given here) [compound 227483] | 75%
10 | 227484 (antisense TGGTAAGGCTTTCTGTGGTG; sugars from the 5' end e5 d10 e5, all phosphorothioate, methylation of C not given here) [compound 227484] | 63%
11 | 227488 (antisense AGTTGGTCTGTGCTCACATA; sugars from the 5' end e5 d10 e5, all phosphorothioate, methylation of C not given here) [compound 227488] | 86%
12 | 227489 (antisense TGTTCAGTTGGTCTGTGCTC; sugars from the 5' end e5 d10 e5, all phosphorothioate, methylation of C not given here) [compound 227489] | 75%
13 | 227490 (antisense GCATGATTTTGTTCAGTTGG; sugars from the 5' end e5 d10 e5, all phosphorothioate, methylation of C not given here) [compound 227490] | 67%
14 | 227499 (antisense TATAAAAGGGCTTTGTAAAA; sugars from the 5' end e5 d10 e5, all phosphorothioate, methylation of C not given here) [compound 227499] | 14%
15 | 227500 (antisense CATAGCAGCAAAGTAGCAGA; sugars from the 5' end e5 d10 e5, all phosphorothioate, methylation of C not given here) [compound 227500] | 69%
16 | 227501 (antisense GCTATTTTTGGCTATAGAAA; sugars from the 5' end e5 d10 e5, all phosphorothioate, methylation of C not given here) [compound 227501] | 64%
17 | 227502 (antisense GATTGAGGTATTTAGCTATT; sugars from the 5' end e5 d10 e5, all phosphorothioate, methylation of C not given here) [compound 227502] | 56%
18 | 272302 (antisense GATCCATACCTGTAGGACCT; sugars from the 5' end e5 d10 e5, all phosphorothioate, methylation of C not given here) [compound 272302] | 60%

Row | Substance | % INHIB (inhibitory effect on hGHR mRNA levels)
19 | 272303 (antisense CCAGAGATCCATACCTGTAG; sugars from the 5' end e5 d10 e5, all phosphorothioate, methylation of C not given here) [compound 272303] | 55%
20 | 272304 (antisense TGCTAAGGATAGCTGCTGTG; sugars from the 5' end e5 d10 e5, all phosphorothioate, methylation of C not given here) [compound 272304] | 48%
21 | 272305 (antisense TTGTCTTTAGGCCTGGATTA; sugars from the 5' end e5 d10 e5, all phosphorothioate, methylation of C not given here) [compound 272305] | 68%
22 | 272306 (antisense TTAGAAGAATTTGTCTTTAG; sugars from the 5' end e5 d10 e5, all phosphorothioate, methylation of C not given here) [compound 272306] | 13%
23 | 272307 (antisense GTGAATTTAGGCTCCTTAGA; sugars from the 5' end e5 d10 e5, all phosphorothioate, methylation of C not given here) [compound 272307] | 55%
24 | 272308 (antisense GCTGTATGGGTCCTAGGTTC; sugars from the 5' end e5 d10 e5, all phosphorothioate, methylation of C not given here) [compound 272308] | 57%
25 | 272309 (antisense TAACAGCTGTTTTCCCCAGC; sugars from the 5' end e5 d10 e5, all phosphorothioate, methylation of C not given here) [compound 272309] | 85%
26 | 272310 (antisense TTTCATCCACTGTACCACCA; sugars from the 5' end e5 d10 e5, all phosphorothioate, methylation of C not given here) [compound 272310] | 76%
27 | 272311 (antisense TTGCACTATTTCATCAACAG; sugars from the 5' end e5 d10 e5, all phosphorothioate, methylation of C not given here) [compound 272311] | 47%
28 | 272312 (antisense GGGTGGATCTGGTTGCACTA; sugars from the 5' end e5 d10 e5, all phosphorothioate, methylation of C not given here) [compound 272312] | 57%
29 | 272313 (antisense ATTGCGTGGTGCTTCCCATC; sugars from the 5' end e5 d10 e5, all phosphorothioate, methylation of C not given here) [compound 272313] | 77%
30 | 272314 (antisense TAGGGTCCATCATTTTCCAT; sugars from the 5' end e5 d10 e5, all phosphorothioate, methylation of C not given here) [compound 272314] | 56%
31 | 272315 (antisense CAATGAGTACACTGGAACTG; sugars from the 5' end e5 d10 e5, all phosphorothioate, methylation of C not given here) [compound 272315] | 53%
32 | 272316 (antisense AACTCGCCATAATTTCCAGA; sugars from the 5' end e5 d10 e5, all phosphorothioate, methylation of C not given here) [compound 272316] | 64%
33 | 272317 (antisense AGCCCAAATATTCCAAAGAT; sugars from the 5' end e5 d10 e5, all phosphorothioate, methylation of C not given here) [compound 272317] | 65%
34 | 272318 (antisense TCAGCATTTTAATCCTTTGC; sugars from the 5' end e5 d10 e5, all phosphorothioate, methylation of C not given here) [compound 272318] | 55%
35 | 272319 (antisense ATTTTCCTTCCTTGAGGAGA; sugars from the 5' end e5 d10 e5, all phosphorothioate, methylation of C not given here) [compound 272319] | 67%
36 | 272320 (antisense AGATTGTGTTCACCTCCTCT; sugars from the 5' end e5 d10 e5, all phosphorothioate, methylation of C not given here) [compound 272320] | 70%
